Reference: ChEMBL document CHEMBL3286248, “Easily accessible polycyclic amines that inhibit the wild-type and amantadine-resistant mutants of the M2 channel of influenza A virus” (J Med Chem, 2014)
Counter-ions that a name gives are not always drawn. The source made the active and inactive calls. The rule behind the calls is not given here.

Assays:
[1] = test system: Influenza B virus; assay: Antiviral activity against Influenza B virus (B/HK/5/72) infected in MDCK cells; assay type: functional, cell-based; settings: B/Hong Kong/05/1972
[2] = Cytotoxicity against MDCK cells assessed as alteration in cell morphology after 72 hrs; assay type: cell-based, Canis lupus familiaris; settings: dog
[3] = target: Matrix protein 2 (Influenza A virus (A/Udorn/307/1972(H3N2)), UniProt P0DOF8); assay type: cell membranes, Influenza A virus (A/udorn/1972(H3N2))
[4] = test system: MDCK; assay type: cell-based, Canis lupus familiaris; settings: dog, 72 h
[5] = target: Matrix protein 2 (Influenza A virus (A/Udorn/307/1972(H3N2))) (UniProt P0DOF8); assay type: cell membranes; settings: Influenza A virus (A/udorn/1972(H3N2))
Sequence of Matrix protein 2 (Influenza A virus (A/Udorn/307/1972(H3N2))) (P0DOF8 whole entry): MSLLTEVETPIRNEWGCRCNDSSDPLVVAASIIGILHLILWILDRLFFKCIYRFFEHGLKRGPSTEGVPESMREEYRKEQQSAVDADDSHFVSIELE

Sequence of Matrix protein 2 (Influenza A virus (A/Udorn/307/1972(H3N2)), UniProt P0DOF8) (P0DOF8 whole entry): as above

Row | SMILES | Activity [1] | MCC at 72 h [2] [µM] | IC50 [3] [µM] | CC50 [4] [µM] | inhibition [5]
1 | C1CC2C3CNCC3C1C1CC21 (stereo not given) | inactive | 100 | 3.38 | 49 | 
2 | CC(N)C12CC3CC(CC(C3)C1)C2 (stereo not given) [RIMANTADINE HYDROCHLORIDE] | inactive |  |  | 230 | 
3 | C1=CC2C3CC3C1C1CN(C3CCNCC3)CC21 (stereo not given) | inactive | 100 |  | 46 | inactive
4 | C1=CC2C3CNCC3C1C1CC21 (stereo not given) | inactive | 100 | 2.92 | 54 | 
5 | C1CC(N2CC3C4CCC(C5CC45)C3C2)CCN1 (stereo not given) | inactive | 20 |  | 9 | inactive
6 | CC12CC34CNCC35CC1(C)C(C)(C5)C2(C)C4 (stereo not given) | inactive | 100 |  | 49 | 
7 | C1CC2C1C1CCC2C2CNCC12 (stereo not given) | inactive | 4 | 1.24 | 1.9 | 
8 | C1=CC2C1C1C=CC2C2CNCC12 (stereo not given) | inactive | 15 | 5.54 | 4.9 | 
9 | N=C(N)N1CC2C3CCC(C4CCC43)C2C1 (stereo not given) | inactive | 4 |  | 1.9 | 
10 | NC12CC3CC(CC(C3)C1)C2 [AMANTADINE] | inactive | ≥ 500 |  | > 500 | 
11 | N=C(N)N1CC2C3CCC(C4CC34)C2C1 (stereo not given) | inactive | 100 | 1.64 | 41 | 
12 | CC12CC34CN(C(=N)N)CC35CC1(C)C(C)(C5)C2(C)C4 (stereo not given) | inactive | ≥ 4 |  | 15 | 
13 | N=C(N)N1CC2C3C=CC(C4C=CC43)C2C1 (stereo not given) | inactive | 20 | 4.93 | 9.4 | 
14 | N=C(N)N1CC2C3C=CC(C4CC34)C2C1 (stereo not given) | inactive | 100 | 1.5 | 39 | 
